The text below walks through data of patent publication US20260035382A1, “COMPOUNDS AS SUMO ACTIVATING ENZYME INHIBITORS” (WIGEN BIOMEDICINE TECHNOLOGY (SHANGHAI) CO., LTD., priority 2022, published 2026).

What is called IC50 is the point on the concentration scale where inhibition reaches its midpoint.

SAE, sequence (Q9UBT2 whole entry): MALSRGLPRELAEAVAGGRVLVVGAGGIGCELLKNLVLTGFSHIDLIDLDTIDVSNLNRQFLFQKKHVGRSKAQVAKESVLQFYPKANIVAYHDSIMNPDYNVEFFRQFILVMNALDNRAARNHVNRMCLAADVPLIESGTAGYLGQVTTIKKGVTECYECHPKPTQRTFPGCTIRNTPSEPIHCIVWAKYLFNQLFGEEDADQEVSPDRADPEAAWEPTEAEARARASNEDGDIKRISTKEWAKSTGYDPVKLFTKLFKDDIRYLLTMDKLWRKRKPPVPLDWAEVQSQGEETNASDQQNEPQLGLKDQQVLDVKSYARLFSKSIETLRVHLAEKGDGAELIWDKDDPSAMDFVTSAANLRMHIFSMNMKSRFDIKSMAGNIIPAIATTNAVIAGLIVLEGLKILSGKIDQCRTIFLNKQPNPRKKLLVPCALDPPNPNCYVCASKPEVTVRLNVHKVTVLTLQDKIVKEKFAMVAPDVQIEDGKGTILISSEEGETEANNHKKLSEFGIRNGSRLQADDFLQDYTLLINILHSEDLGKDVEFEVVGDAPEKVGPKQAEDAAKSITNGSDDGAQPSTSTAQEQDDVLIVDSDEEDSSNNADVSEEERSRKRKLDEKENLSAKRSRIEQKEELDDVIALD
SAE, sequence (Q9UBE0 whole entry partner): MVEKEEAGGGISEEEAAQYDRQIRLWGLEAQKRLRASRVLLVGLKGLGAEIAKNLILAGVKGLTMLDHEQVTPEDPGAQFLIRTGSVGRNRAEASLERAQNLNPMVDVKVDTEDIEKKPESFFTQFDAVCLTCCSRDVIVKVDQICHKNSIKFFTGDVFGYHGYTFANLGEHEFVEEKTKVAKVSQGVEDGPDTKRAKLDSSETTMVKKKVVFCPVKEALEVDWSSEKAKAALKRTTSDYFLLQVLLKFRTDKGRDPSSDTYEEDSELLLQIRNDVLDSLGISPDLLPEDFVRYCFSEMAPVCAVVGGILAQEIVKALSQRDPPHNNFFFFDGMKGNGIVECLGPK

The first assay concerns the target SAE (Homo sapiens (Human), UniProt Q9UBT2). The assay is described as follows: In vitro inhibitory activity assay against SAE (SUMO-2/3 immunofluorescence in HCT116 cells). Type of assay: cell-based. Particulars: 6 h incubation, class symbols, read-out: SUMO IF IC50. As for the experimental part: HCT116 cells were seeded into a 96-well black transparent bottom plate at about 20000/well with 90 μL per well. The cells were incubated at 37° C. overnight for 24 h. The test compounds were 10-fold diluted to give a final concentration, and 10 μL of the diluted compounds was added to each well of the cell culture plate. The mixture was incubated at 37° C. for 6 h. The cells were then washed gently, the culture medium was discarded, and the cells were washed once with 200 μL of 0.1% o PBST. 50 μL of 4% PFA was added to each well, and the cells were immobilized at room temperature for 20 min, and then washed with PBS 2-3 times. 50 μL of 0.2% o Triton X-100 was added to each well, and the cells were left to stand at room temperature for 15 min and washed with 0.1% PBST 3 times. 100 uL of 3% BSA (0.6 g BSA+20 mL PBS) was added to each well, and the mixture was blocked at 37° C. for 30 min. After the blocking was completed, the liquid was removed and a primary antibody (SUMO-2/3 (181H8) Rabbit mAb, 1:400 dilution) was prepared with […]. 30 μL of the diluted primary antibody was added to each well, and the mixture was incubated at 4° C. overnight. The cells were washed 3 times with 200 μL of 0.1% o PBST. A FITC secondary antibody (Fluorescein (FITC)-conjugated Affinipure Goat Anti-Rabbit IgG (H+L), 1:300 dilution) was further prepared with 1% o BSA, and 40 μL of the diluted secondary antibody was added to each well. The mixture was incubated at room temperature in the dark for 2 h, and then the cells were washed 4 times with 0.1% PBST. The fluorescence signal of the sample was detected and compared to the DMSO group, and the inhibition rate and IC50 were calculated.
Consider `NS(=O)(=O)OC[C@H]1C[C@@H](Nc2ncncc2C(=O)c2cc3c(s2)CCCC32NCCc3cnc(Cl)cc32)C[C@@H]1O` (some centres unmarked) [Compound 133], for which the IC50 is 50 to 200 nM.
On the same count and under the same terms, in the case of `N#Cc1ccc2c(c1)[C@@]1(C=Cc3sc(C(=O)c4cncnc4N[C@@H]4C[C@H](COS(N)(=O)=O)[C@@H](O)C4)cc31)OCC2` [Compound 300] it was no more than 50 nM.
Take `NS(=O)(=O)OC[C@H]1C[C@@H](Nc2ncncc2C(=O)c2cc3c(s2)COC[C@]32NCCc3cc(Cl)c(Cl)cc32)C[C@@H]1O` [Compound 99]: the IC50 lay within 50 to 200 nM.
Take `NS(=O)(=O)OC[C@H]1C[C@@H](Nc2ncncc2C(=O)c2cc3c(s2)CCC[C@]32NCC3(CC3)c3ccc(Cl)cc32)C[C@@H]1O` [Compound 153]: the IC50 was no more than 50 nM.
On the same count and under the same terms, in the case of `NS(=O)(=O)OC[C@H]1C[C@@H](Nc2ncncc2C(=O)c2cc3c(s2)CSCC32NCCc3ccccc32)C[C@@H]1O` (some centres unmarked) [Compound 85] it was greater than 200 nM; in that of `NS(=O)(=O)OC[C@H]1C[C@@H](Nc2ncncc2C(=O)c2cc3c(s2)C=C[C@]32OCCc3ccc(F)cc32)C[C@@H]1O` [Compound 294], no more than 50 nM.
On the same count and under the same terms, in the case of `NS(=O)(=O)OC[C@H]1C[C@@H](Nc2ncncc2C(=O)c2cc3c(s2)COC[C@]32NCCc3c(Cl)cc(Cl)cc32)C[C@@H]1O` [Compound 102] it was 50 to 200 nM; in that of `NS(=O)(=O)OC[C@H]1C[C@@H](Nc2ncncc2C(=O)c2cc3c(s2)COC[C@@]32NCCc3c(Cl)cc(Cl)cc32)C[C@@H]1O` [Compound 101], greater than 200 nM; in that of `NS(=O)(=O)OC[C@H]1C[C@@H](Nc2ncncc2C(=O)c2cc3c(s2)CCC[C@]32OCCc3ccccc32)C[C@@H]1O` [Compound 246], 50 to 200 nM.
Same read-out and setting: the value for `NS(=O)(=O)OC[C@H]1C[C@@H](Nc2ncncc2C(=O)c2cc3c(s2)C=CCC32NCCc3ccc(Cl)cc32)C[C@@H]1O` (some centres unmarked) [Compound 36] was no more than 50 nM; that for `NS(=O)(=O)OC[C@H]1C[C@@H](Nc2ncncc2C(=O)c2cc3c(s2)OCC[C@]32NCCc3ccc(Cl)cc32)C[C@@H]1O` [Compound 218] was 50 to 200 nM.
For the compound `NS(=O)(=O)OC[C@H]1C[C@@H](Nc2ncncc2C(=O)c2cc3c(s2)CSC[C@@]32NCCc3ccccc32)C[C@@H]1O` [Compound 86], the IC50 is greater than 200 nM.
Same read-out and setting: the value for `NS(=O)(=O)OC[C@H]1C[C@@H](Nc2ncncc2C(=O)c2cc3c(s2)COC[C@@]32NCCc3ccc(Cl)c(F)c32)C[C@@H]1O` [Compound 104] was greater than 200 nM; that for `NS(=O)(=O)OC[C@H]1C[C@@H](Nc2ncncc2C(=O)c2cc3c(s2)CSC[C@]32NCCc3ccccc32)C[C@@H]1O` [Compound 87] was 50 to 200 nM; that for `NS(=O)(=O)OC[C@H]1C[C@@H](Nc2ncncc2C(=O)c2cc3c(s2)C=CC32NCCc3ccc(F)cc32)C[C@@H]1O` (some centres unmarked) [Compound 79] was 50 to 200 nM.
For `NS(=O)(=O)OC[C@H]1C[C@@H](Nc2ncncc2C(=O)c2cc3c(s2)CSCC32NCCc3ccc(Cl)cc32)C[C@@H]1O` (some centres unmarked) [Compound 91], the IC50 was no more than 50 nM.
Same read-out and setting: the value for `CN1Cc2sc(C(=O)c3cncnc3N[C@@H]3C[C@H](COS(N)(=O)=O)[C@@H](O)C3)cc2[C@@]2(C1)OCCc1ccc(Cl)cc12` [Compound 260] was greater than 200 nM; that for `NS(=O)(=O)OC[C@H]1C[C@@H](Nc2ncncc2C(=O)c2cc3c(s2)CCC[C@]32NCCc3ccccc32)C[C@@H]1O` [Compound 3] was no more than 50 nM; that for `COc1ccc2c(c1)[C@@]1(CCCc3sc(C(=O)c4cncnc4N[C@@H]4C[C@H](COS(N)(=O)=O)[C@@H](O)C4)cc31)NCC2` [Compound 180] was greater than 200 nM.
On the same count and under the same terms, in the case of `NS(=O)(=O)OC[C@H]1C[C@@H](Nc2ncncc2C(=O)c2cc3c(s2)CCC[C@@]32NCCc3ccccc32)C[C@@H]1O` [Compound 2] it was greater than 200 nM; in that of `NS(=O)(=O)OC[C@H]1C[C@@H](Nc2ncncc2C(=O)c2cc3c(s2)C=CC32OCCc3ccc(F)cc32)C[C@@H]1O` (some centres unmarked) [Compound 292], 50 to 200 nM.
On the same count and under the same terms, in the case of `NS(=O)(=O)OC[C@H]1C[C@@H](Nc2ncncc2C(=O)c2cc3c(s2)CSC[C@]32NCCc3cnc(Cl)cc32)C[C@@H]1O` [Compound 144] it was no more than 50 nM; in that of `Cc1cc2c(cc1Cl)C1(CCCc3sc(C(=O)c4cncnc4N[C@@H]4C[C@H](COS(N)(=O)=O)[C@@H](O)C4)cc31)NCC2` (some centres unmarked) [Compound 29], 50 to 200 nM; in that of `NS(=O)(=O)OC[C@H]1C[C@@H](Nc2ncncc2C(=O)c2cc3c(s2)OC[C@]32NCCc3ccc(F)cc32)C[C@@H]1O` [Compound 60], 50 to 200 nM.
As to `[2H]C1([2H])Cc2ccc(Cl)cc2C2(CCCc3sc(C(=O)c4cncnc4N[C@@H]4C[C@H](COS(N)(=O)=O)[C@@H](O)C4)cc32)N1` (some centres unmarked) [Compound 196], the IC50 fell in the range of 50 to 200 nM.
Regarding `COc1cc2c(cc1Cl)C1(CCc3sc(C(=O)c4cncnc4N[C@@H]4C[C@H](COS(N)(=O)=O)[C@@H](O)C4)cc31)NCC2` (some centres unmarked) [Compound 73], the IC50 was 50 to 200 nM.
On the same count and under the same terms, in the case of `NS(=O)(=O)CC[C@H]1C[C@@H](Nc2ncncc2C(=O)c2cc3c(s2)CSC[C@]32NCCc3ncc(Cl)cc32)C[C@@H]1O` [Compound 150] it was no more than 50 nM; in that of `NS(=O)(=O)OC[C@H]1C[C@@H](Nc2ncncc2C(=O)c2cc3c(s2)C=C[C@@]32OCCc3ccc(Cl)cc32)C[C@@H]1O` [Compound 296], greater than 200 nM.
On the same count and under the same terms, in the case of `NS(=O)(=O)OC[C@H]1C[C@@H](Nc2ncncc2C(=O)c2cc3c(s2)CSCC32NCCc3ncc(Cl)cc32)C[C@@H]1O` (some centres unmarked) [Compound 148] it was 50 to 200 nM.
On the same count and under the same terms, the value for `NS(=O)(=O)OC[C@H]1C[C@@H](Nc2ncncc2C(=O)c2cc3c(s2)COCC32NCCc3ccc(Cl)c(F)c32)C[C@@H]1O` (some centres unmarked) [Compound 103] was 50 to 200 nM; that for `NS(=O)(=O)OC[C@H]1C[C@@H](Nc2ncncc2C(=O)c2cc3c(s2)CCC[C@@]32NCCc3cnc(Cl)cc32)C[C@@H]1O` [Compound 134] was greater than 200 nM; that for `NS(=O)(=O)OC[C@H]1C[C@@H](Nc2ncncc2C(=O)c2cc3c(s2)OCC32NCCc3ccc(F)cc32)C[C@@H]1O` (some centres unmarked) [Compound 58] was greater than 200 nM.
As to `NS(=O)(=O)OC[C@H]1C[C@@H](Nc2ncncc2C(=O)c2cc3c(s2)CC2(CC2)CC32NCCc3ccc(Cl)cc32)C[C@@H]1O` (some centres unmarked) [Compound 151], the IC50 was no more than 50 nM.
On the same count and under the same terms, in the case of `NS(=O)(=O)OC[C@H]1C[C@@H](Nc2ncncc2C(=O)c2cc3c(s2)CCCC32NCCc3ccc(C4CC4)cc32)C[C@@H]1O` (some centres unmarked) [Compound 23] it was 50 to 200 nM.
Still for that read-out and setting: in the case of `CC1=CC2(NCCc3ccc(Cl)cc32)c2cc(C(=O)c3cncnc3N[C@@H]3C[C@H](COS(N)(=O)=O)[C@@H](O)C3)sc21` (some centres unmarked) [Compound 157] it was 50 to 200 nM; in that of `N#Cc1ccc2c(c1)[C@]1(CCc3sc(C(=O)c4cncnc4N[C@@H]4C[C@H](COS(N)(=O)=O)[C@@H](O)C4)cc31)OCC2` [Compound 287], greater than 200 nM; in that of `NS(=O)(=O)OC[C@H]1C[C@@H](Nc2ncncc2C(=O)c2cc3c(s2)CCCC32NCCc3ccc(F)cc32)C[C@@H]1O` (some centres unmarked) [Compound 7], 50 to 200 nM.
Still for that read-out and setting: in the case of `NS(=O)(=O)OC[C@H]1C[C@@H](Nc2ncncc2C(=O)c2cc3c(s2)OC[C@@]32NCCc3ccc(F)cc32)C[C@@H]1O` [Compound 59] it was greater than 200 nM; in that of `NS(=O)(=O)OC[C@H]1C[C@@H](Nc2ncncc2C(=O)c2cc3c(s2)C(F)(F)C[C@]32NCCc3ccc(Cl)cc32)C[C@@H]1O` [Compound 162], 50 to 200 nM.

The assay is the same for the next values; noted with them: 6 h incubation, numeric values, read-out: SUMO IF IC50.
For `CN1Cc2sc(C(=O)c3cncnc3N[C@@H]3C[C@H](COS(N)(=O)=O)[C@@H](O)C3)cc2[C@]2(C1)NCCc1ccc(Cl)cc12` [Compound 114], the IC50 is 22.8 nM.
Turning to `C#CCN1Cc2sc(C(=O)c3cncnc3N[C@@H]3C[C@H](COS(N)(=O)=O)[C@@H](O)C3)cc2[C@]2(C1)NCCc1ccc(Cl)cc12` [Compound 195], the half-inhibitory concentration (IC50) turned out to be 21.3 nM.
Still for that read-out and setting: the value for `[2H]C1([2H])Cc2ccc(Cl)cc2[C@@]2(CCCc3sc(C(=O)c4cncnc4N[C@@H]4C[C@H](COS(N)(=O)=O)[C@@H](O)C4)cc32)N1` [Compound 198] was 28.8 nM; that for `[2H]C1([2H])CN[C@]2(CCCc3sc(C(=O)c4cncnc4N[C@@H]4C[C@H](COS(N)(=O)=O)[C@@H](O)C4)cc32)c2cc(Cl)ccc21` [Compound 201] was 26.5 nM; that for `NS(=O)(=O)OC[C@H]1C[C@@H](Nc2ncncc2C(=O)c2cc3c(s2)CN(C2CC2)C[C@]32NCCc3ccc(Cl)cc32)C[C@@H]1O` [Compound 117] was 19.1 nM.
In the case of `NS(=O)(=O)OC[C@H]1C[C@@H](Nc2ncncc2C(=O)c2cc3c(s2)CCC[C@@]32NCCc3ccc(F)cc32)C[C@@H]1O` [Compound 8], the half-maximal inhibitory concentration (IC50) is greater than 1000 nM.
For `NS(=O)(=O)OC[C@H]1C[C@@H](Nc2ncncc2C(=O)c2cc3c(s2)COC[C@@]32NCCc3ccc(Cl)cc32)C[C@@H]1O` [Compound 20], the IC50 was greater than 1000 nM.
For `NS(=O)(=O)OC[C@H]1C[C@@H](Nc2ncncc2C(=O)c2cc3c(s2)CSC[C@]32NCCc3ccc(Cl)cc32)C[C@@H]1O` [Compound 93], the IC50 turned out to be 28.9 nM.
